What all share (assay): Tyrosine kinase activity inhibition rate in cell membrane fraction (Poly-Glu4-Tyr substrate)
What all share (assay type): biochemical

Experiment [1] relates to tyrosine kinase in cell membrane fraction of AU565. The conditions noted are these: 25 μM kinase inhibitor, 25 μM ATP. As to the method: (§1) Breast cancer cell lines shown in Table 3 were cultured in a 150 mm dish so as to be about 80% confluent, the cells were recovered using PBS and a scraper, and a cell pellet was obtained by centrifugal operation (900×g, for 5 minutes, at 4° C.). The pellet was frozen with liquid nitrogen and stored at −80° C. until preparation of the measurement sample.
(§2) 500 μl of NP40 (−) solubilized buffer (20 mM HEPES (pH 7.4)), (w/v) % glycerol, 0.2% protease inhibitor cocktail (#P8340: Sigma-Aldrich (product composition: 104 mM AEBSF, 80 μM aprotinin, 4 mM bestatin, 1.4 mM E-64, 2 mM leupeptin, 1.5 mM Pepstatin A), 50 mM NaF and 200 μM Na3VO4) was added to the cell pellet, followed by stirring for 2 seconds three times using a vortex mixer. After being allowed to stand for 10 minutes, the soluble fraction was removed by centrifugal operation (at 20000×g, for 30 minutes, at 4° C.). The obtained pellet was resuspended in 500 μl of NP40 (−) solubilized buffer, the soluble fraction was again removed by centrifugal operation (at 20000×g, for 20 minutes, at 4° C.), and the pellet was washed. The pellet was resuspended by adding 500 μl of NP40 (+) solubilized buffer (a buffer prepared by adding NP-40 to the NP40 (−) solubilized buffer at a final concentration of 1%) to the pellet, pipetting fifty times, and vortexing for 2 seconds three times. After being allowed to stand for 10 minutes, a cell membrane fraction containing a membrane protein was obtained by centrifugal operation (at 20000×g, for 40 minutes, at 4° C.). The protein concentration of the fraction was measured by DC protein assay (#500-0116 JA: Bio-Rad) and the fraction was used as a sample for kinase activity measurement. The sample was frozen with liquid nitrogen and stored at −80° C. until used for the following kinase activity measurement.
(§3) NeutrAvidin Coated Plates (HBC) (96 white plate; #15509: Pierce) were washed three times with 300 μl of TBS-T (20 mM Tris-HCl (pH 7.4)), 150 mM NaCl, 0.1% Tween), and then 100 μl of Poly-Glu4-Tyr biotin conjugate (#12440: Upstate) which had been diluted to 1 μg/ml with TBS (20 mM Tris-HCl (pH 7.4), 150 mM NaCl) was added to the wells. After shaking at 37° C. and 400 rpm for 90 minutes, the wells were washed with 300 μl of TBS-T three times and a measuring plate was obtained.
(§4) The measurement sample was diluted with a kinase buffer (20 mM HEPES (pH 7.4), 25 mM MgCl2, 1.25 mM MnCl2, 250 μM Na3VO4, 12.5 (w/v) % glycerol) so as to adjust the protein concentration to 6.25 μg/ml. The diluted measurement sample was transferred to wells of a 96 well V bottom plate. A DMSO solution (inhibitor concentration: 5 mM) containing one type of tyrosine kinase inhibitors (Inhibitors 1 to 10 shown in Table 6) was added to the wells at a ratio of 1:160 based on the diluted measurement sample solution, followed by mixing thereof. As the control, DMSO was added to the diluted measurement sample at the same ratio as the solution of the inhibitor. The used tyrosine kinase inhibitors are represented as Inhibitors 1 to 10 in Table 6.
(§5) After addition of the inhibitors, a mixed solution of the measurement sample and the inhibitor was allowed to stand at room temperature for 10 minutes. 40 μl of the mixed solution was transferred to wells of the measuring plate and 10 μl of an ATP solution (20 mM HEPES (pH 7.4), […]) as the phosphate group donor was added to the wells.
(§6) The composition of the solution in the wells is as follows: protein concentration: 5 μg/ml, 20 mM HEPES (pH 7.4), 20 mM MgCl2, 1 mM MnCl2, 200 μM Na3VO4, 10 (w/v) % glycerol, 25 μM ATP, 25 μM kinase inhibitor.
(§7) After shaking the measuring plate at 37° C. and 400 rpm for 60 minutes, the solution was removed from the measuring plate, and the wells were washed with 300 μl of TBS-T three times. 100 μl of Starting Block T20 (TBS) (#37543: Pierce) as a blocking solution was added to the wells, followed by blocking at 37° C. and 400 rpm for 10 minutes. The blocking solution was removed from the measuring plate. […]

Experiment [2] concerns tyrosine kinase in cell membrane fraction of HS578T. The conditions noted are these: 25 μM kinase inhibitor, 25 μM ATP. As to the method:
as §1, §2, §3, §4, §5, §6, §7

Experiment [3] relates to tyrosine kinase in cell membrane fraction of MDA-MB-415. The conditions noted are these: 25 μM kinase inhibitor, 25 μM ATP. As to the method:
as §1, §2, §3, §4, §5, §6, §7

For experiment [4], the system named is tyrosine kinase in cell membrane fraction of MDA-MB-435S. The note with it: 25 μM kinase inhibitor, 25 μM ATP. As to the method:
as §1, §2, §3, §4, §5, §6, §7

Experiment [5] relates to tyrosine kinase in cell membrane fraction of BT-20. The note with it: 25 μM kinase inhibitor, 25 μM ATP. As to the method: as §1, §2, §3, §4, §5, §6, §7
Experiment [6] has as its system tyrosine kinase in cell membrane fraction of HCC1806. The note with it: 25 μM kinase inhibitor, 25 μM ATP. As to the method: as §1, §2, §3, §4, §5, §6, §7
Experiment [7] concerns tyrosine kinase in cell membrane fraction of HCC1428. The conditions noted are these: 25 μM kinase inhibitor, 25 μM ATP. How it is done: as §1, §2, §3, §4, §5, §6, §7
Experiment [8] relates to tyrosine kinase in cell membrane fraction of MCF7. The conditions noted are these: 25 μM kinase inhibitor, 25 μM ATP. As to the method: as §1, §2, §3, §4, §5, §6, §7
Experiment [9] deals with tyrosine kinase in cell membrane fraction of UACC812. The conditions noted are these: UACC812; 25 μM kinase inhibitor, 25 μM ATP. How it is done: as §1, §2, §3, §4, §5, §6, §7
Experiment [10] deals with tyrosine kinase in cell membrane fraction of MDA-MB-157. The conditions noted are these: 25 μM kinase inhibitor, 25 μM ATP. As to the method: as §1, §2, §3, §4, §5, §6, §7
Experiment [11] concerns tyrosine kinase in cell membrane fraction of SK-BR-3. The note with it: 25 μM kinase inhibitor, 25 μM ATP. How it is done: as §1, §2, §3, §4, §5, §6, §7
Experiment [12] concerns tyrosine kinase in cell membrane fraction of MDA-MB-231. The note with it: 25 μM kinase inhibitor, 25 μM ATP. How it is done:
as §1, §2, §3, §4, §5, §6, §7

For experiment [13], the system named is tyrosine kinase in cell membrane fraction of HCC202. The note with it: 25 μM kinase inhibitor, 25 μM ATP. As to the method: as §1, §2, §3, §4, §5, §6, §7
In experiment [14] the test system is tyrosine kinase in cell membrane fraction of BT-483. The note with it: 25 μM kinase inhibitor, 25 μM ATP. As to the method:
as §1, §2, §3, §4, §5, §6, §7

Experiment [15] deals with tyrosine kinase in cell membrane fraction of ZR-75-1. The note with it: 25 μM kinase inhibitor, 25 μM ATP. As to the method: as §1, §2, §3, §4, §5, §6, §7
The test system of experiment [16] is tyrosine kinase in cell membrane fraction of MDA-MB-453. The conditions noted are these: 25 μM kinase inhibitor, 25 μM ATP. As to the method:
as §1, §2, §3, §4, §5, §6, §7

Experiment [17] concerns tyrosine kinase in cell membrane fraction of MDA-MB-436. The conditions noted are these: 25 μM kinase inhibitor, 25 μM ATP. As to the method:
as §1, §2, §3, §4, §5, §6, §7

Structures are written as SMILES.

Turning to `CN(C)c1cc2c(Nc3ccc4c(cnn4Cc4ccccc4)c3)ncnc2cn1` [Inhibitor 4, N4-(1-benzyl-1H-indazol-5-yl)-N6,N6-dimethyl-pyrido-[3,4-d]-pyrimidine-4,6-diamine], the Inhibition rate in experiment [1] is reported as −3.8%; in experiment [2], 32.1%; in [3], 19.6%; in experiment [4], 22.6%; in [5], 32.4%; in [6] it was 33.7%. The Inhibition rate was found to be 7.9% in experiment [7]; 12.1% in experiment [8]; 59.4% in experiment [9]; 29.2% in experiment [10]; 31.4% in [11]; 38.9% in [12]. Further, the Inhibition rate is listed as 21.3% in experiment [13]; 52.7% in experiment [14]; 7.0% in [15]; 27.9% in experiment [16]; 26.3% in experiment [17].
For the molecule `CCCNC(=O)Nc1ccc(Oc2ncnc3cc(OC)c(OC)cc23)cc1Cl` [Inhibitor 7], the Inhibition rate in [1] worked out at 7.1%; in [2], 19.4%; in experiment [3] it was 25.1%; in [4] it was 10.5%; in [5] it was 2.3%; in [6] it was 27.7%. In addition, the Inhibition rate was 12.9% in experiment [7]; 59.1% in experiment [8]; 28.5% in experiment [9]; 11.2% in [10]; 45.0% in experiment [11]; 9.7% in [12]. The Inhibition rate in experiment [13] amounted to 33.4%; in experiment [14] it was 17.3%; in experiment [15], 18.3%; in experiment [16], 29.4%; in experiment [17], 23.1%.
Turning to `CS(=O)(=O)CCNCc1nc(-c2ccc3ncnc(Nc4ccc(OCc5cccc(F)c5)c(Cl)c4)c3c2)cs1.Cl.Cl` [Inhibitor 5, N-[3-chloro-4-[(3-fluorophenyl)methoxy]phenyl]-6-[2-[[[2-(methylsulfonyl)ethyl]amino]methyl]-4-thiazolyl]-4-quinazolineamine dihydrochloride], the Inhibition rate was 40.9% in experiment [1]; 64.2% in [2]; 48.1% in experiment [3]; 57.8% in [4]; 56.3% in experiment [5]; 68.4% in experiment [6]. Besides, the Inhibition rate in experiment [7] is listed as 56.1%; in [8] it was 75.4%; in experiment [9], 80.4%; in [10], 56.1%; in experiment [11] it was 75.7%; in [12] it was 58.2%. The Inhibition rate is recorded as 66.2% in experiment [13]; 66.9% in experiment [14]; 44.8% in experiment [15]; 70.4% in experiment [16]; 68.5% in experiment [17].
